Assay results reported in patent US8791132B2, “Compounds and methods for treatment of hypertension” (Medivation Technologies, Inc., priority 2011, dated 2014).
pKi: −log10 of the molar value. “And” between values parts separate entries of the source, which are not always exact repeats. Identical values can stand only once. Like-named read-outs stand apart in the source and are kept apart here.

Key:
[1] = target: T1, rat adrenergic α1B receptor (Rattus norvegicus, UniProt P15823); experiment: Radioligand binding, adrenergic α1B ([3H]Prazosin); conditions: for Percentage inhibition of ligand binding, Adrenergic α1B (0.1 μM): compound at 0.1 μM
T1 construct: rat adrenergic α1B receptor obtained from Wistar Rat liver; from tissue; host or cells: Wistar rat liver
T1 sequence (P15823 1-515): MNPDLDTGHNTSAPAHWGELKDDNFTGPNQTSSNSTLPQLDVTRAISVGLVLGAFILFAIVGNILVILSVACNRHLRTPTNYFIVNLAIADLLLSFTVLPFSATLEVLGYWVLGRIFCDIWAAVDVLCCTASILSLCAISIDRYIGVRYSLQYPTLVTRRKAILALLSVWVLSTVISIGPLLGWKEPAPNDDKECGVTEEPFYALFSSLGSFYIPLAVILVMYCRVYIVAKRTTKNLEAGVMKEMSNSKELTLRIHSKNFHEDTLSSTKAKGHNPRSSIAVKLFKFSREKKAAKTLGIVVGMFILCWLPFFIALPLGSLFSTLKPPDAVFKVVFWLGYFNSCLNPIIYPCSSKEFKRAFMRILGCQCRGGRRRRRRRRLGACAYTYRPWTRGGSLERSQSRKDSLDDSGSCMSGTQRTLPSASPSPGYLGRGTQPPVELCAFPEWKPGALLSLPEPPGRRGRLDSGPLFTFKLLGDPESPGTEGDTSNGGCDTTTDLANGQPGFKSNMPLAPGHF
Procedure, shortened: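 Specific binding, taken as total minus that remaining with 10 μM phentolamine, is measured after filtration and counting. Rat liver receptor preparation and 0.25 nM [3H]prazosin are incubated with compound in 50 mM Tris-HCl (pH 7.4, 0.5 mM EDTA) at 25° C for 60 min. Activity is reported as percent inhibition.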

[2] = target: T2, human recombinant adrenergic α2A receptor (Homo sapiens, UniProt P08913); experiment: Radioligand binding, adrenergic α2A ([3H]MK-912); conditions: for Percentage inhibition of ligand binding, Adrenergic α2A (0.1 μM): compound at 0.1 μM
T2 construct: expressed in transfected cells; host or cells: insect Sf9 cells
T2 sequence (P08913 1-465): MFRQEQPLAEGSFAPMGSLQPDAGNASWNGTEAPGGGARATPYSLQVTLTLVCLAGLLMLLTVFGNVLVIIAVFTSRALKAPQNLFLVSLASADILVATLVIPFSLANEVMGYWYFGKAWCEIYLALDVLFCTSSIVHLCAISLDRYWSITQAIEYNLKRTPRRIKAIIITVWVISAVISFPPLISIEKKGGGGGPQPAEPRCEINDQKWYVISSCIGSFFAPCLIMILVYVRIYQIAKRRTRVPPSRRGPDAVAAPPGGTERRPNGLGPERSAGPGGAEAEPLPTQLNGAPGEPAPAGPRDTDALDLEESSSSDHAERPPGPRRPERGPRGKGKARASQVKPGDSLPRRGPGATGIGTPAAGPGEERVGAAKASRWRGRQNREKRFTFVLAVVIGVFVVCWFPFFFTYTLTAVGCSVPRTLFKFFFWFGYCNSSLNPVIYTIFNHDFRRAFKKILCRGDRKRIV
Procedure, shortened: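 Receptor expressed in Sf9 cells, in 50 mM Tris-HCl pH 7.4, 12.5 mM MgCl2, 2 mM EDTA; compounds incubated with 1 nM [3H]MK-912 for 60 min at 25 °C.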

[3] = target: T3, human recombinant adrenergic α2B receptor (Homo sapiens, UniProt P18089); experiment: Radioligand binding, adrenergic α2B ([3H]Rauwolscine); conditions: for Percentage inhibition of ligand binding, Adrenergic α2B (0.03 μM): compound at 0.03 μM; for pKi: read-out: Ki α2B; for inhibition at 0.1 µM: read-out: Percentage inhibition of ligand binding, Adrenergic α2B (0.1 μM), compound at 0.1 μM
T3 construct: expressed in transfected cells; host or cells: CHO-K1
T3 sequence (P18089 1-450): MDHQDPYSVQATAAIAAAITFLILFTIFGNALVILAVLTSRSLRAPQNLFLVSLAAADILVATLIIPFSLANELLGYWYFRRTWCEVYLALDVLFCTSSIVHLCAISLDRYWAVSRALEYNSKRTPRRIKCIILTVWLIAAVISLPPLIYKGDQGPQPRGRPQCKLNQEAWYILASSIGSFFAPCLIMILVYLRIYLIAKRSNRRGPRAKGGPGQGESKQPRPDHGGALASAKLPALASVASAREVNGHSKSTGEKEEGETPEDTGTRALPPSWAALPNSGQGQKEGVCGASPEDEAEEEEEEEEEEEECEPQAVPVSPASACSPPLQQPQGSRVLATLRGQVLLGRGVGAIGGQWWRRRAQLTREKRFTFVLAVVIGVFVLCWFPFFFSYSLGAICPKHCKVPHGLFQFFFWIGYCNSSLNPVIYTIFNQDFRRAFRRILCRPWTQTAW
Procedure, shortened: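 Values are percent inhibition of specific radioligand binding. The receptor, expressed in CHO-K1 cells, was exposed to 2.5 nM [3H]Rauwolscine at 25° C for 60 min, with 10 μM Prazosin marking non-specific binding.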

[4] = [3H]Prazosin, repeat datapoints each shown
[5] = [3H]MK-912, repeat datapoints each shown
[6] = [3H]Rauwolscine, repeat datapoints each shown
[7] = read-out: Percentage inhibition of ligand binding, Adrenergic α1B (0.1 μM), compound at 0.1 μM, [3H]Prazosin, repeat datapoints each shown
[8] = read-out: Percentage inhibition of ligand binding, Adrenergic α2B (0.03 μM), compound at 0.03 μM, [3H]Rauwolscine, repeat datapoints each shown
[9] = read-out: Percentage inhibition of ligand binding, Adrenergic α2A (0.1 μM), compound at 0.1 μM, [3H]MK-912, repeat datapoints each shown
[10] = 0.1 μM compound, read-out: Percentage inhibition of ligand binding, Adrenergic α1B
[11] = 0.1 μM compound, read-out: Percentage inhibition of ligand binding, Adrenergic α2A
[12] = 0.03 μM compound, read-out: Percentage inhibition of ligand binding, Adrenergic α2B

SMILES | Percentage inhibition of ligand binding, Adrenergic α2A (0.1 μM) [2, 5] [%] | inhibition at 0.1 µM [1, 7] [%] | inhibition at 0.03 µM [3, 8] [%] | inhibition at 0.1 µM [2, 9] [%] | also measured
Cc1ccc2c(c1)c1c(n2CC(O)c2ccc(C(N)=O)cc2)CCN(C)C1 (stereo not shown) [compound 139, 4-[2-(2,8-dimethyl-1,2,3,4-tetrahydro-pyrido[4,3-b]indol-5-yl)-1-hydroxy-ethyl]-benzamide] | −2 | – | – | – | Percentage inhibition of ligand binding, Adrenergic α1B (0.1 μM) [1, 4]: 72%; inhibition at 0.03 µM ([1]; read-out: Percentage inhibition of ligand binding, Adrenergic α1B (0.03 μM), compound at 0.03 μM, [3H]Prazosin, repeat datapoints each shown): 46%; pKi [2]: 6.41; Percentage inhibition of ligand binding, Adrenergic α2B (0.03 μM) [3, 6]: 59% and 83%; pKi [3]: 8.09; inhibition at 0.1 µM [3, 6]: 87%
Cc1ccc2c(c1)c1c(n2CC(O)c2ccc(C#N)nc2)CCN(C)C1 (stereo not shown) [compound 140, 5-[2-(2,8-dimethyl-1,2,3,4-tetrahydro-pyrido[4,3-b]indol-5-yl)-1-hydroxy-ethyl]-pyridine-2-carbonitrile] | −2 | – | – | – | Percentage inhibition of ligand binding, Adrenergic α1B (0.1 μM) [1, 4]: 37%; Percentage inhibition of ligand binding, Adrenergic α2B (0.03 μM) [3, 6]: 49%
Cc1ccc2c(c1)c1c(n2CC(OC(=O)N(C)C)c2ccncc2)CCN(C)C1 (stereo not shown) [compound 141, N,N-dimethyl-carbamic acid 2-(2,8-dimethyl-1,2,3,4-tetrahydro-pyrido[4,3-b]indol-5-yl)-1-pyridin-4-yl-ethyl ester] | 5 | 23 | 76 | – | –
Cc1cnc2c(c1)c1c(n2CC(O)c2ccc(C#N)cc2)CCN(C)C1 (stereo not shown) [compound 145] | – | 49 | 61 | 6 | –
Cc1ccc2c(c1)c1c(n2CC(OC(=O)c2ccncc2)c2ccncc2)CCN(C)C1 (stereo not shown) [compound 147, isonicotinic acid 2-(2,8-dimethyl-1,2,3,4-tetrahydro-pyrido[4,3-b]indol-5-yl)-1-pyridin-4-yl-ethylester] | 19 | – | – | – | Percentage inhibition of ligand binding, Adrenergic α1B (0.1 μM) [1, 4]: 7%; Percentage inhibition of ligand binding, Adrenergic α2B (0.03 μM) [3, 6]: 91% and 102%; pKi [3]: 8.83
Cc1ccc2c(c1)c1c(n2CC(N)c2ccncc2)CN(C)CC1 (stereo not shown) [compound 153, 2-(2,6-dimethyl-3,4-dihydro-1H-pyrido[3,4-b]indol-9(2H)-yl)-1-(pyridin-4-yl)ethanamine] | – | 17 | 17 | 6 | –
Cc1ccc2c(c1)c1c(n2CC(N)c2ccncc2)CCN(C)CC1 (stereo not shown) [compound 154, 2-(3,9-dimethyl-2,3,4,5-tetrahydroazepino[4,5-b]indol-6(1H)-yl)-1-(pyridin-4-yl)ethanamine] | 15 | – | – | – | Percentage inhibition of ligand binding, Adrenergic α1B (0.1 μM) [1, 4]: 86%; Percentage inhibition of ligand binding, Adrenergic α2B (0.03 μM) [3, 6]: 58%
Cc1cnc2c(c1)c1c(n2CC(N)c2ccncc2)CCN(C)C1 (stereo not shown) [compound 156] | – | 21 | 6 | 1 | –
Cc1ccc2c(c1)c1c(n2CC(N)c2ccc(C(N)=O)nc2)CCN(C)C1 (stereo not shown) [compound 157, 5-[1-amino-2-(2,8-dimethyl-1,2,3,4-tetrahydro-pyrido[4,3-b]indol-5-yl)-ethyl]-pyridine-2-carboxylic acid amide] | – | 57 | 43 | 6 | –
Cc1cnc2c(c1)c1c(n2CC(N)c2ccncc2)CCNC1 (stereo not shown) [compound 158] | – | 8 | 43 | -1 | –
Cc1ccc2c(c1)c1c(n2CC(O)c2ccnc(C(=O)O)c2)CCN2CCCC12 (stereo not shown) [compound 168] | – | 23 | 32 | 16 | –
Cc1ccc2c(c1)c1c(n2CC(C)(O)c2ccc(C(=O)O)nc2)CCN(C)C1 (stereo not shown) [compound 169, 5-(1-(1,2,3,4-tetrahydro-2,8-dimethylpyrido[4,3-b]indol-5-yl)-2-hydroxypropan-2-yl)pyridine-2-carboxylic acid] | – | 2 | 20 | 15 | –
Cc1ccc2c(c1)c1c(n2CC(C)(O)c2cnccc2C(=O)O)CCN(C)C1 (stereo not shown) [compound 179] | – | 6 | 8 | 6 | –
CN1CCc2c(c3c(Cl)cccc3n2CCc2ccccc2)C1 [compound 214] | 64 | 18 | 48 | 58 | pKi [2]: 7.64; inhibition at 0.03 µM ([2]; read-out: Percentage inhibition of ligand binding, Adrenergic α2A (0.03 μM), compound at 0.03 μM, [3H]MK-912, repeat datapoints each shown): 37%; pKi [3]: 7.89; inhibition at 0.1 µM [3, 6]: 80%
CN1CCc2c(c3cc(Cl)ccc3n2CCc2ccc(F)cc2)C1 [compound 217] | – | 62 | – | 74 | inhibition at 0.1 µM [3, 6]: 102%
CN1CCc2c(c3cc(Cl)ccc3n2CC(O)(c2ccc(F)cc2)C2CC2)C1 (stereo not shown) [compound 223] | – | 21 | 47 | 69 | –
Cc1cnc2c(c1)c1c(n2CCc2ccc(F)cc2)CCN2CCCC12 (stereo not shown) [compound 336] | – | – | – | – | inhibition at 0.1 µM [1, 10]: 98%; inhibition at 0.1 µM [2, 11]: 66%; inhibition at 0.03 µM [3, 12]: 104%
CCCCCCC(=O)OC(Cn1c2c(c3cc(C)ccc31)CN(C)CC2)c1ccncc1 (stereo not shown) [compound 338, heptanoic acid 2-(2,8-dimethyl-1,2,3,4-tetrahydro-pyrido[4,3-b]indol-5-yl)-1-pyridin-4-yl-ethyl ester] | – | – | – | – | inhibition at 0.1 µM [1, 10]: 16%; inhibition at 0.1 µM [2, 11]: 60%; inhibition at 0.03 µM [3, 12]: 102%
